From patent publication US20240368163A1, “COMPOUNDS AND METHODS FOR MODULATING SPLICING” (REMIX THERAPEUTICS INC., priority 2021, published 2024)

Tests used:
[1] = Transwell assay for membrane efflux and permeability; type: in vitro ADME, Canine; details: dog; MDCK-BCRP or MDCKII-MDR1 transwell, test compound 1 μM, 2 hours at 37° C.
Text: Compounds described herein were screened for cell membrane permeability and efflux in a transwell assay using Madin-Darby Canine Kidney (MDCK) cells expressing Breast Cancer Resistance Protein (BCRP) or subclone MDCKII cells expressing Multidrug Resistance Protein 1 (MDR1).
MDCK-BCRP or MDCKII-MDR1 Cells: The Netherlands Cancer Institute, High Glucose Dulbecco's Modified Eagle's Medium (DMEM): Gibco/Thermo Fisher Scientific, Fetal Bovine Serum (FBS): Coming, Hank's Balanced Salt Solution (HBSS) and Trypsin/EDTA: Gibco/Thermo Fisher Scientific, HTS Transwell-96 Well Permeable Supports: Coming Corporation, Millicell Epithelial Volt-Ohm: Millipore, Cellometer® Vision: Nexcelom Bioscience LLC, Infinite 200 PRO microplate reader: Tecan, MTS2/4 orbital shaker: IKA Labortechnik, HEPES/Penicillin/Streptomycin: Solarbio.
MDCK-BCRP or MDCKII-MDR1 cells were seeded to each of the wells of the transwell plate at a density of 1.6×10^6 cells/mL and the plate was incubated for 4-8 days with medium changes every two days. To perform the drug transport assay, cell monolayers were first washed three times with pre-warmed HBSS and then incubated with gentle shaking (150 rpm) for 30 min at 37° C. Stock solutions of test compounds (e.g., exemplary compounds of Formulas (I), (II), and (III)) and control compounds (e.g., metoprolol, prazosin, and/or imatinib) were prepared in DMSO and adjusted to a working solution using HBSS. The final concentration of test compounds was 1 μM with DMSO; 0.5%. The plates were incubated at 37° C. for 2 hours.

[2] = tested on: SMN2; assay: Splicing RT-qPCR panel, SMN2 canonical junction (CJ) mRNA; type: cell-based, human; details: Homo sapiens, RT-qPCR panel, canonical junction mRNA; compound concentration having 50% response in CJ decrease; read-out: SMN2 IC50 (decrease in CJ mRNA levels)
How it was run: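 Cells: A673 (DMEM/10% FBS) or K562 (IMDM/10% FBS). Dose: 11-pt 3-fold, top 10 uM final, ≤0.25% DMSO, 24 h, 37 °C. Readout: RT-qPCR of CJ/AJ exon junctions, ΔΔCt vs housekeeper and DMSO, RQ to % response.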

For `CN(c1ccc(-c2cc(F)c(-c3cn[nH]c3)c3cn[nH]c23)nn1)[C@@H]1C[C@H]2CC(F)(F)[C@@H](C1)N2` (stereo in doubt) [Compound 378, 6,6-difluoro-N-{6-[5-fluoro-4-(1H-pyrazol-4-yl)-1H-indazol-7-yl]pyridazin-3-yl}-N-methyl-8-azabicyclo[3.2.1]octan-3-amine], the Papp at 2 h, 1 μM [1] was 2 to 6 ×10⁻⁶ cm/s, the efflux ratio at 2 h, 1 μM [1] was greater than 5 and the IC50 [2] was less than 100 nM.

`CN(c1ccc(-c2ccc(-c3cn[nH]c3)c3ncsc23)nn1)[C@@H]1C[C@H]2CC(F)(F)[C@@H](C1)N2` (stereo in doubt) [Compound 379, 6,6-difluoro-N-methyl-N-{6-[4-(1H-pyrazol-4-yl)-1,3-benzothiazol-7-yl]pyridazin-3-yl}-8-azabicyclo [3.2.1]octan-3-amine] gave a Papp at 2 h, 1 μM [1] of 2 to 6 ×10⁻⁶ cm/s, an efflux ratio at 2 h, 1 μM [1] of 1.5 to 5 and an IC50 [2] of less than 100 nM.

`CN(c1ccc(-c2ccc(-c3cn[nH]c3)c3cn[nH]c23)nn1)[C@@H]1C[C@H]2CC[C@@H](C1)N2` [Compound 104] gave a Papp at 2 h, 1 μM [1] of less than 2 ×10⁻⁶ cm/s, an efflux ratio at 2 h, 1 μM [1] greater than 5 and an IC50 [2] of less than 100 nM.

`CN(c1ccc(-c2ccc(-n3cccn3)c3cn[nH]c23)nn1)[C@@H]1C[C@H]2CC[C@@H](C1)N2` [Compound 105] gave a Papp at 2 h, 1 μM [1] of less than 2 ×10⁻⁶ cm/s, an efflux ratio at 2 h, 1 μM [1] greater than 5 and an IC50 [2] of less than 100 nM.

With `CN(c1ccc(-c2ccc(-c3cn[nH]c3)c3ncsc23)nn1)C1CC(C)(C)NC(C)(C)C1` [Compound 132] the Papp at 2 h, 1 μM [1] was less than 2 ×10⁻⁶ cm/s, the efflux ratio at 2 h, 1 μM [1] was greater than 5 and the IC50 [2] was less than 100 nM.

Work on `CN(c1ccc(-c2ccc(-c3cn[nH]c3)c3cn[nH]c23)nn1)C1CC(C)(C)NC(C)(C)C1` [Compound 137] yielded a Papp at 2 h, 1 μM [1] of less than 2 ×10⁻⁶ cm/s, an efflux ratio at 2 h, 1 μM [1] greater than 5 and an IC50 [2] of 100 to 1000 nM.

For `CN(c1ccc(-c2ccc(-c3ccc(=O)n(C)c3)c3scnc23)nn1)C1CC(C)(C)NC(C)(C)C1` [Compound 178], the Papp at 2 h, 1 μM [1] was less than 2 ×10⁻⁶ cm/s, the efflux ratio at 2 h, 1 μM [1] was greater than 5 and the IC50 [2] was greater than 10000 nM.

Work on `CC1(C)CC(Oc2ccc(-c3ccc(-c4cn[nH]c4)c4ncsc34)nn2)CCN1` (stereo not drawn) [Compound 182] yielded a Papp at 2 h, 1 μM [1] of less than 2 ×10⁻⁶ cm/s, an efflux ratio at 2 h, 1 μM [1] greater than 5 and an IC50 [2] of 100 to 1000 nM.

With `c1nc2c(-c3cn[nH]c3)ccc(-c3ccc(OC4CCNCC4)nn3)c2s1` [Compound 183] the Papp at 2 h, 1 μM [1] was less than 2 ×10⁻⁶ cm/s, the efflux ratio at 2 h, 1 μM [1] was greater than 5 and the IC50 [2] was 100 to 1000 nM.

`c1nc2c(-c3cn[nH]c3)ccc(-c3ccc(O[C@@H]4C[C@H]5CC[C@@H](C4)N5)nn3)c2s1` [Compound 184] gave a Papp at 2 h, 1 μM [1] of less than 2 ×10⁻⁶ cm/s, an efflux ratio at 2 h, 1 μM [1] greater than 5 and an IC50 [2] of less than 100 nM.

Compound `CC1(C)CC(Nc2ccc(-c3ccc(-c4cn[nH]c4)c4ncsc34)nn2)CC(C)(C)N1` [Compound 186] has a Papp at 2 h, 1 μM [1] of less than 2 ×10⁻⁶ cm/s, an efflux ratio at 2 h, 1 μM [1] greater than 5 and an IC50 [2] of less than 100 nM.

Compound `c1nc2c(-c3cn[nH]c3)ccc(-c3ccc(N[C@@H]4C[C@H]5CC[C@@H](C4)N5)nn3)c2s1` [Compound 202] has a Papp at 2 h, 1 μM [1] of less than 2 ×10⁻⁶ cm/s, an efflux ratio at 2 h, 1 μM [1] greater than 5 and an IC50 [2] of less than 100 nM.

In the case of `CCN(c1ccc(C2=CC=C(c3cn[nH]c3)C3N=CSC23)nn1)[C@@H]1C[C@H]2CC[C@@H](C1)N2` (stereo partly drawn) [Compound 203], the Papp at 2 h, 1 μM [1] is reported as less than 2 ×10⁻⁶ cm/s, the efflux ratio at 2 h, 1 μM [1] is reported as greater than 5 and the IC50 [2] is reported as less than 100 nM.

`CN(c1ccc(-c2ccc(-c3cn[nH]c3)c3ncsc23)nn1)[C@H]1C[C@]2(C)CC[C@](C)(C1)N2` [Compound 204] gave a Papp at 2 h, 1 μM [1] of less than 2 ×10⁻⁶ cm/s, an efflux ratio at 2 h, 1 μM [1] greater than 5 and an IC50 [2] of less than 100 nM.

`[2H]C([2H])([2H])N(c1ccc(-c2ccc(-c3cn[nH]c3)c3ncsc23)nn1)[C@@H]1C[C@H]2CC[C@@H](C1)N2` [Compound 210] showed a Papp at 2 h, 1 μM [1] of less than 2 ×10⁻⁶ cm/s, an efflux ratio at 2 h, 1 μM [1] greater than 5 and an IC50 [2] of less than 100 nM.

For `CN(c1ccc(-c2ccc(-c3cn[nH]c3)c3ncsc23)nn1)[C@@H]1C[C@H]2CC[C@@H](C1)N2` [Compound 213], the Papp at 2 h, 1 μM [1] was less than 2 ×10⁻⁶ cm/s, the efflux ratio at 2 h, 1 μM [1] was greater than 5 and the IC50 [2] was less than 100 nM.

For `c1nc2c(-c3cn[nH]c3)ccc(-c3ccc(N[C@@H]4C[C@H]5CCC[C@@H](C4)N5)nn3)c2s1` [Compound 215], the Papp at 2 h, 1 μM [1] was less than 2 ×10⁻⁶ cm/s, the efflux ratio at 2 h, 1 μM [1] was greater than 5 and the IC50 [2] was less than 100 nM.

For `Fc1cc(-c2ccc(O[C@@H]3C[C@H]4CC[C@@H](C3)N4)nn2)c2[nH]ncc2c1-c1cn[nH]c1` [Compound 216], the Papp at 2 h, 1 μM [1] was less than 2 ×10⁻⁶ cm/s, the efflux ratio at 2 h, 1 μM [1] was greater than 5 and the IC50 [2] was less than 100 nM.

`CN(c1ccc(-c2ccc(-c3cn[nH]c3)c3ncsc23)nn1)[C@@H]1C[C@H]2CCC[C@@H](C1)N2` [Compound 226] gave a Papp at 2 h, 1 μM [1] of less than 2 ×10⁻⁶ cm/s, an efflux ratio at 2 h, 1 μM [1] greater than 5 and an IC50 [2] of less than 100 nM.

For `[2H]C([2H])([2H])N(c1ccc(-c2ccc(-c3cn[nH]c3)c3ncsc23)nn1)[C@@H]1C[C@H]2CCC[C@@H](C1)N2` [Compound 227], the Papp at 2 h, 1 μM [1] was less than 2 ×10⁻⁶ cm/s, the efflux ratio at 2 h, 1 μM [1] was greater than 5 and the IC50 [2] was less than 100 nM.

For `CCN(c1ccc(-c2ccc(-c3cn[nH]c3)c3ncsc23)nn1)[C@@H]1C[C@H]2CCC[C@@H](C1)N2` [Compound 228], the Papp at 2 h, 1 μM [1] was less than 2 ×10⁻⁶ cm/s, the efflux ratio at 2 h, 1 μM [1] was greater than 5 and the IC50 [2] was less than 100 nM.

`CN(c1ccc(-c2ccc(-c3cnn(C)c3)c3cn[nH]c23)nn1)C1CCNCC1` [Compound 242] showed a Papp at 2 h, 1 μM [1] of less than 2 ×10⁻⁶ cm/s, an efflux ratio at 2 h, 1 μM [1] greater than 5 and an IC50 [2] of 1000 to 10000 nM.

Work on `CN(c1ccc(-c2cc(F)c(-c3cnn(C)c3)c3cn[nH]c23)nn1)[C@@H]1C[C@H]2CC[C@@H](C1)N2` [Compound 291] yielded a Papp at 2 h, 1 μM [1] of less than 2 ×10⁻⁶ cm/s, an efflux ratio at 2 h, 1 μM [1] greater than 5 and an IC50 [2] of less than 100 nM.

`c1n[nH]cc1-c1ccc(-c2ccc(N[C@@H]3C[C@H]4CCC[C@@H](C3)N4)nn2)c2[nH]ncc12` [Compound 294] gave a Papp at 2 h, 1 μM [1] of less than 2 ×10⁻⁶ cm/s, an efflux ratio at 2 h, 1 μM [1] of 1.5 to 5 and an IC50 [2] of less than 100 nM.

`CC1(C)CC(Oc2ccc(-c3cc(F)c(-c4cn[nH]c4)c4cn[nH]c34)nn2)CC(C)(C)N1` [Compound 307] showed a Papp at 2 h, 1 μM [1] of 2 to 6 ×10⁻⁶ cm/s, an efflux ratio at 2 h, 1 μM [1] greater than 5 and an IC50 [2] of less than 100 nM.

Work on `c1nc2c(-c3cn[nH]c3)ccc(-c3ccc(N(C4CC4)C4C[C@H]5CCC[C@@H](C4)N5)nn3)c2s1` (stereo partly drawn) [Compound 311] yielded a Papp at 2 h, 1 μM [1] of less than 2 ×10⁻⁶ cm/s, an efflux ratio at 2 h, 1 μM [1] greater than 5 and an IC50 [2] of less than 100 nM.

With `Fc1cc(-c2ccc(O[C@@H]3C[C@H]4CC[C@@H](C3)N4)nn2)c2sncc2c1-c1cn[nH]c1` [Compound 327] the Papp at 2 h, 1 μM [1] was 2 to 6 ×10⁻⁶ cm/s, the efflux ratio at 2 h, 1 μM [1] was greater than 5 and the IC50 [2] was less than 100 nM.

In the case of `COc1cc(-c2ccc(-c3ccc(N(C)C4CC(C)(C)NC(C)(C)C4)nn3)c3scnc23)cnn1` [Compound 330], the Papp at 2 h, 1 μM [1] is reported as 2 to 6 ×10⁻⁶ cm/s, the efflux ratio at 2 h, 1 μM [1] is reported as greater than 5 and the IC50 [2] is reported as less than 100 nM.

Work on `CC(C)(C)NC1CCN(c2ccc(-c3ccc(-c4cn[nH]c4)c4ncsc34)nn2)C1` (stereo not drawn) [Compound 336] yielded a Papp at 2 h, 1 μM [1] of 2 to 6 ×10⁻⁶ cm/s, an efflux ratio at 2 h, 1 μM [1] greater than 5 and an IC50 [2] of less than 100 nM.

Compound `c1nc2c(-c3cn[nH]c3)ccc(-c3ccc(N4CCC(NC5CC5)C4)nn3)c2s1` (stereo not drawn) [Compound 337] has a Papp at 2 h, 1 μM [1] of 2 to 6 ×10⁻⁶ cm/s, an efflux ratio at 2 h, 1 μM [1] of less than 1.5 and an IC50 [2] of 100 to 1000 nM.

For `Fc1cc(-c2ccc(N[C@@H]3C[C@H]4CC[C@@H](C3)N4)nn2)c2scnc2c1-c1cn[nH]c1` [Compound 339], the Papp at 2 h, 1 μM [1] was less than 2 ×10⁻⁶ cm/s, the efflux ratio at 2 h, 1 μM [1] was 1.5 to 5 and the IC50 [2] was less than 100 nM.

`Cc1ncc(-c2ccc(-c3ccc(O[C@@H]4C[C@H]5CC[C@@H](C4)N5)nn3)c3scnc23)s1` [Compound 348, 7-{6-[(exo)-8-azabicyclo[3.2.1]octan-3-yloxy]pyridazin-3-yl}-4-(2-methyl-1,3-thiazol-5-yl)-1,3-benzothiazole] showed a Papp at 2 h, 1 μM [1] of less than 2 ×10⁻⁶ cm/s, an efflux ratio at 2 h, 1 μM [1] greater than 5 and an IC50 [2] of less than 100 nM.
